Assays:
Format in all cases: biochemical
CDK4-cyclin D1 = CDK4-cyclin D1 (Homo sapiens, UniProt P11802); assay: Kinase assay (radioactive phosphate incorporation), CDK4-cyclin D1; details: read-out: Kinase Inhibition pIC50 CDK4-cyclin D1 (converted)
Outline: (§1)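 Inhibition was measured as transfer of radiolabelled phosphate from [γ-32P]-ATP (100 μM ATP, 15 mM MgCl2) onto polypeptide substrates by recombinant kinases or kinase complexes. Reactions ran at 30° C in MOPS/β-glycerophosphate buffer, pH 7.4, were stopped on ice and filtered before scintillation counting.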

GSK3b = GSK3b (Homo sapiens, UniProt P49841); assay: Kinase assay (radioactive phosphate incorporation), GSK-3b; details: read-out: Kinase Inhibition pIC50 GSK-3b (converted)
Sequence of GSK3b (P49841 whole entry, species assumed): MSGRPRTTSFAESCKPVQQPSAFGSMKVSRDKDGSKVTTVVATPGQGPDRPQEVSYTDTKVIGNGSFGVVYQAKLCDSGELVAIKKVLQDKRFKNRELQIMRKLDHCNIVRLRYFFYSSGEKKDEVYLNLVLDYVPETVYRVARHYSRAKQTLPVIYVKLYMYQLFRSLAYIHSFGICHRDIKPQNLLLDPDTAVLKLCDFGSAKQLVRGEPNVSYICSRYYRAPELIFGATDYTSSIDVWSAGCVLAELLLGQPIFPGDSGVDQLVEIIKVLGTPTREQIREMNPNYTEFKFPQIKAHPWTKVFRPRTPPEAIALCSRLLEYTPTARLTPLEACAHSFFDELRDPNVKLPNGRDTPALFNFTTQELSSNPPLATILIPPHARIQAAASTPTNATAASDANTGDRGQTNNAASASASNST
Outline: as §1

CDK2-cyclin A = CDK2-cyclin A (Homo sapiens, UniProt P24941); assay: Kinase assay (radioactive phosphate incorporation), CDK2-cyclin A; details: read-out: Kinase Inhibition pIC50 CDK2-cyclin A (converted)
Outline: as §1

CDK1-cyclin B = CDK1-cyclin B (Homo sapiens, UniProt P06493); assay: Kinase assay (radioactive phosphate incorporation), CDK1-cyclin B; details: read-out: Kinase Inhibition pIC50 CDK1-cyclin B (converted)
Sequence of CDK1-cyclin B (P06493 whole entry): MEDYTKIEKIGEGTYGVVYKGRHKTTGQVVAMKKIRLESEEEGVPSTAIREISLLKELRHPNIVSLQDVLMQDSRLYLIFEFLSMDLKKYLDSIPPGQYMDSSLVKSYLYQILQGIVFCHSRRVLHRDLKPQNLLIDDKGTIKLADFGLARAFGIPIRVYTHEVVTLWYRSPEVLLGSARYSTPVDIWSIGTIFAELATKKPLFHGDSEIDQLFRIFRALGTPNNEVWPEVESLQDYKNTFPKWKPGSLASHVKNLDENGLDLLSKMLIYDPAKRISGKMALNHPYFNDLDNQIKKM
Sequence of CDK1-cyclin B (P14635 whole entry partner): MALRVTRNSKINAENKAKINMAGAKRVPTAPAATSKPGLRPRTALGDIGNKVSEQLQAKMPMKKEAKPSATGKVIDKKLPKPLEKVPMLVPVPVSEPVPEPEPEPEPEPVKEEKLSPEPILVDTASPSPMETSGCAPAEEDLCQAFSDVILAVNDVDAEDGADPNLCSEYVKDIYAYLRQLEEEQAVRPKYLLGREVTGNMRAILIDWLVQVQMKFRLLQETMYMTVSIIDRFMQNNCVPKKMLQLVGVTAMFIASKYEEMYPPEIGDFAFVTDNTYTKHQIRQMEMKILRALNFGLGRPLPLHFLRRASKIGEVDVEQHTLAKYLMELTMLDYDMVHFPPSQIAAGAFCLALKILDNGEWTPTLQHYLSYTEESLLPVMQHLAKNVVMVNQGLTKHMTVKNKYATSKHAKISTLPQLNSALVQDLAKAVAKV
Outline: as §1

[1] = target: T1, Flt3 (FMS-like tyrosine kinase-3) (Homo sapiens, UniProt P36888); assay: Kinase assay (radioactive phosphate incorporation), Flt3; details: pIC50 is -log(IC50, M), read-out: Kinase Inhibition pIC50 Flt3 (converted)
T1 sequence (P36888 27-993): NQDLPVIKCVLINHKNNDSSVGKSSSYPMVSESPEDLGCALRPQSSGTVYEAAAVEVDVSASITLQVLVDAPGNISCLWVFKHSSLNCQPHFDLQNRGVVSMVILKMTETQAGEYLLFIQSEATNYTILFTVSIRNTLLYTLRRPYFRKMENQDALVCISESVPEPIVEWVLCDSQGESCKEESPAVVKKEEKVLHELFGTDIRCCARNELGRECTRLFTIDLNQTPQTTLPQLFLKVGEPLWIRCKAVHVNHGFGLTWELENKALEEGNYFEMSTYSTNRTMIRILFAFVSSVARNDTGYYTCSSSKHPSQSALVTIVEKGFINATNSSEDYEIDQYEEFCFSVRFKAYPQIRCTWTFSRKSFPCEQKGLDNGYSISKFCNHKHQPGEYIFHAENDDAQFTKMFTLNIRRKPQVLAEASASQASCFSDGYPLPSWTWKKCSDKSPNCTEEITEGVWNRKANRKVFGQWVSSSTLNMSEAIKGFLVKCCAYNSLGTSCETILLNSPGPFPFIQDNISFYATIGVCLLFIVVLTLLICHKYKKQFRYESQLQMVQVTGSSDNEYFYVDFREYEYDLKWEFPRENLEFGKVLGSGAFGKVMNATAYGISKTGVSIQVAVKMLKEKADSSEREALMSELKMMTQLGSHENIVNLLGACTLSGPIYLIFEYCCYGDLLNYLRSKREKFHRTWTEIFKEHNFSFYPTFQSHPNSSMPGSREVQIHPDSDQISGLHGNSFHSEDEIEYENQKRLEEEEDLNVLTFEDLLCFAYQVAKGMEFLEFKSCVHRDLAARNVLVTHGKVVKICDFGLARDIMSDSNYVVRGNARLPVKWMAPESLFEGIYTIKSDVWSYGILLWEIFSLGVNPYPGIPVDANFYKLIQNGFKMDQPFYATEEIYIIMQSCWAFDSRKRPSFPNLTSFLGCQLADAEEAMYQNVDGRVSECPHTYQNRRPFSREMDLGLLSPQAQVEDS
Outline: as §1

CDK7/cyclin H = CDK7/cyclin H (Homo sapiens, UniProt P50613); assay: CDK 7 assay (CTD peptide substrate); details: read-out: Kinase Inhibition pIC50 CDK7-cyclin H (converted)
Sequence of CDK7/cyclin H (P50613 whole entry): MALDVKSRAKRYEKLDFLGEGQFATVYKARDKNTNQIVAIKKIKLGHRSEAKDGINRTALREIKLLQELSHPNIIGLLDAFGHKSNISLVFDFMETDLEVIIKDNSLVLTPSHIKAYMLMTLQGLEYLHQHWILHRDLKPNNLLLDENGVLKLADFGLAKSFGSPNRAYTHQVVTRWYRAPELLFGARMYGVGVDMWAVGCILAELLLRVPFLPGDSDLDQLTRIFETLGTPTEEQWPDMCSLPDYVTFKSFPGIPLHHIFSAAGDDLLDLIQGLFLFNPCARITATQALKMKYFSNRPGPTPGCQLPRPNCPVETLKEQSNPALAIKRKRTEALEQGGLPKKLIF
Sequence of CDK7/cyclin H (P51946 whole entry partner): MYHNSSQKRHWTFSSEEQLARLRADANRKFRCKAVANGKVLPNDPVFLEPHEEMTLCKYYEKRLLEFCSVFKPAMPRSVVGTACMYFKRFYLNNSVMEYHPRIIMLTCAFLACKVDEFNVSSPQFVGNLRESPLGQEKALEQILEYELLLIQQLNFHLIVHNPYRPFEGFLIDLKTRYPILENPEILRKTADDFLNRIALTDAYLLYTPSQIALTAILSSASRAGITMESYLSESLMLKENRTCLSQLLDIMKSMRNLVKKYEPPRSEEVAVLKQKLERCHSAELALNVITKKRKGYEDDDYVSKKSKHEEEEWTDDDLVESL
Outline: (§2)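 Radiometric filter-binding read-out: 32P transferred from 100 μM [γ-32P]ATP to biotinyl-(YSPTSPS)4 CTD peptide. Enzyme 0.5-2 μg recombinant human complex; 20 mM MOPS pH 7.2, 15 mM MgCl2, vanadate, DTT; 45 min, 30° C; avidin bound, P81 plate washed, counted.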

CDK9/cyclin T1 = CDK9/cyclin T1 (Homo sapiens, UniProt P50750); assay: CDK 9 assay (CTD peptide substrate); details: read-out: Kinase Inhibition pIC50 CDK9-cyclin T1 (converted)
Sequence of CDK9/cyclin T1 (P50750 whole entry): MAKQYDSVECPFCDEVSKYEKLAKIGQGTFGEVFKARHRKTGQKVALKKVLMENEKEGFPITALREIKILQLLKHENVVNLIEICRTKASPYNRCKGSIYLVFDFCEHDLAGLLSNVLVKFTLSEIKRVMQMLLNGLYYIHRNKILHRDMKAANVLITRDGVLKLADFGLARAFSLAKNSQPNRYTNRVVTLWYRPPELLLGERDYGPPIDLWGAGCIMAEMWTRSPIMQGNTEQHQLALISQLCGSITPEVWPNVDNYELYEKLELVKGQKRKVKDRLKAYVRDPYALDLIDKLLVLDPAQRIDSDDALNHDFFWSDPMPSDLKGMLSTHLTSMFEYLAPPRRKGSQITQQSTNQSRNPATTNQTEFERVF
Sequence of CDK9/cyclin T1 (O60563 whole entry partner): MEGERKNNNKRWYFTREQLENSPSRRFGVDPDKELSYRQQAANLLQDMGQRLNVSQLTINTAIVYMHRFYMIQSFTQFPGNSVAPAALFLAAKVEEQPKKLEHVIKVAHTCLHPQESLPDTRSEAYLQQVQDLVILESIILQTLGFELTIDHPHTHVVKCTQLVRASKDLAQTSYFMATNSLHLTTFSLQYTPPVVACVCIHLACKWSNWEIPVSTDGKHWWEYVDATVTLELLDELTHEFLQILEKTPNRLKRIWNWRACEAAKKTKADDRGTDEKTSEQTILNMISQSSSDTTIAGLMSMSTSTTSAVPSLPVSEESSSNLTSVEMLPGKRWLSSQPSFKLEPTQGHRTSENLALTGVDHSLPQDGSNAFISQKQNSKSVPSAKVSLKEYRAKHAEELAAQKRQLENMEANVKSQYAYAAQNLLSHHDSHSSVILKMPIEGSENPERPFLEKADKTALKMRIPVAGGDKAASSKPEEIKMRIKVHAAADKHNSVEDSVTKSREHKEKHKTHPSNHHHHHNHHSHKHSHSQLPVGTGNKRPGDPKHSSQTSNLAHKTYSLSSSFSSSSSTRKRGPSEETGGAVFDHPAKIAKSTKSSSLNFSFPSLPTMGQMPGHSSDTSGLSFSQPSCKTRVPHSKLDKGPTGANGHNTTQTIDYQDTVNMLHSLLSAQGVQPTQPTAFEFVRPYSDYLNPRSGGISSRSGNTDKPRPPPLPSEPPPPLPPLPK
Outline: as §2

CDK2-cycline E = CDK2-cycline E (Homo sapiens, UniProt P24941); assay: Kinase assay (radioactive phosphate incorporation), CDK2-cyclin E; details: read-out: Kinase Inhibition pIC50 CDK2-cycline E (converted)
Outline: as §1

Aurora A kinase = target: T2, Aurora A kinase (Homo sapiens, UniProt O14965); assay: Aurora-A (human) kinase assay (Kemptide substrate); details: pIC50 is -log(IC50, M); 15 μM ATP; read-out: Kinase Inhibition pIC50 Aurora A kinase (converted)
T2 construct: purchased
T2 sequence (O14965 1-403): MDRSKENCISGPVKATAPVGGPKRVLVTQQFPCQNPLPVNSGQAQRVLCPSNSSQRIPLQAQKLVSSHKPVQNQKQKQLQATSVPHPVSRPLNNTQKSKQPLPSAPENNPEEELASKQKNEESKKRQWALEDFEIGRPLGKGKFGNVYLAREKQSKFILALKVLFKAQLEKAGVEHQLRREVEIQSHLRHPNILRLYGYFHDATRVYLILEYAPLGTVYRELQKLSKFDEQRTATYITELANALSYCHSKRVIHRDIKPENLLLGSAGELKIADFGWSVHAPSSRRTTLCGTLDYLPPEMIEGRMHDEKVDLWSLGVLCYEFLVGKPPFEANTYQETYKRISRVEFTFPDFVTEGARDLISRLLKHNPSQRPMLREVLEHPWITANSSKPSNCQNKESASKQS
Outline: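 Kemptide (LRRASLG, 200 μM) phosphorylation by 5-10 ng commercial aurora-A measured as [γ-33P] incorporation at 15 μM ATP with 10 mM Mg acetate, pH 7.0 MOPS buffer. Reaction ran 40 min at room temperature; acid-stopped, captured on P81 filters, scintillation read.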

Sequence of CDK4-cyclin D1 (P11802 whole entry): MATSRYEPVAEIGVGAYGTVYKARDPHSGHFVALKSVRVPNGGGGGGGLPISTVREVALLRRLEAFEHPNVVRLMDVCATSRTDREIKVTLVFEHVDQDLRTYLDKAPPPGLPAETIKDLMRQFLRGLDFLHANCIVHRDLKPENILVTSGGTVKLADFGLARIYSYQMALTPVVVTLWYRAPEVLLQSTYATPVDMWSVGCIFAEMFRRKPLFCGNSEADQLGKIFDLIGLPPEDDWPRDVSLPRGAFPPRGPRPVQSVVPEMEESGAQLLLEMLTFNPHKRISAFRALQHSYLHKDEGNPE
Sequence of CDK4-cyclin D1 (P24385 whole entry partner): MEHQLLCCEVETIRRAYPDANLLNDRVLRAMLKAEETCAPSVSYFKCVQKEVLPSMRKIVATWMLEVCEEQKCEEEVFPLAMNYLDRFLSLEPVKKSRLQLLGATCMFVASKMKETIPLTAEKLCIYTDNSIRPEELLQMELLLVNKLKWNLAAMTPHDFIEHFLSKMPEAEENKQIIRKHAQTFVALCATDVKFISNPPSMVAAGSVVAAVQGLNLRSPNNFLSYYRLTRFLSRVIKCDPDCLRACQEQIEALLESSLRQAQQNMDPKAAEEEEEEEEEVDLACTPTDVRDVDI

SMILES | IC50 (CDK4-cyclin D1) [nM] | IC50 (GSK3b) [nM] | IC50 (CDK2-cyclin A) [nM] | IC50 (CDK1-cyclin B) [nM] | IC50 [1] [nM] | IC50 (CDK7/cyclin H) [nM] | IC50 (CDK9/cyclin T1) [nM] | IC50 (CDK2-cycline E) [nM] | IC50 (Aurora A kinase) [nM]
CCNc1nc(C)c(-c2ccnc(Nc3cccc(CNS(C)(=O)=O)c3)n2)s1 [Compound 5, N-{3-[4-(2-Ethylamino-4-methyl-thiazol-5-yl)-pyrimidin-2-ylamino]-benzyl}-methanesulfonamide] | 158 | 200 | 200 | 1260 | 50.1 | 251 | 12.6 | 158 | 31.6
Cc1nc(C)c(-c2ccnc(Nc3cccc(N4CCNCC4)c3)n2)s1 [Compound 8, [4-(2,4-Dimethyl-thiazol-5-yl)-pyrimidin-2-yl]-(3-piperazin-1-yl-phenyl)-amine] | 2510 | 12600 | 5010 | 5010 | 50.1 | 2000 | 501 | 2000 | 39800
Cc1nc(N)sc1-c1ccnc(Nc2cccc(CNS(=O)(=O)C(F)(F)F)c2)n1 [Compound 12, N-{3-[4-(2-Amino-4-methyl-thiazol-5-yl)-pyrimidin-2-ylamino]-benzyl}-C,C,C-trifluoro-methanesulfonamide] | 631 | 2000 | 501 | 631 | 794 | 200 | 100 | 63.1 | 251
CC(=O)NCc1ccc(Nc2nccc(-c3sc(C)nc3C)n2)cc1 [Compound 15, N-{4-[4-(2,4-Dimethyl-thiazol-5-yl)-pyrimidin-2-ylamino]-benzyl}-acetamide] | 631 | 1000 | 1000 | 501 | 501 | 1580 | 794 | 200 | 39.8
CC(=O)NCc1ccc(Nc2nccc(-c3sc(N)nc3C)n2)cc1 [Compound 16, N-{4-[4-(2-Amino-4-methyl-thiazol-5-yl)-pyrimidin-2-ylamino]-benzyl}-acetamide] | 501 | 1000 | 1260 | 1000 | 158 | 2000 | 251 | 158 | 79.4
CCNc1nc(C)c(-c2ccnc(Nc3ccc(S(C)(=O)=O)cc3)n2)s1 [Compound 17, [4-(2-Ethylamino-4-methyl-thiazol-5-yl)-pyrimidin-2-yl]-(4-methanesulfonyl-phenyl)-amine] | 1580 | 2000 | 39.8 | 1000 | 251 | 2510 | 200 | 50.1 | 39.8
CCNc1nc(C)c(-c2ccnc(Nc3cccc(S(N)(=O)=O)c3)n2)s1 [Compound 18, 3-[4-(2-Ethylamino-4-methyl-thiazol-5-yl)-pyrimidin-2-ylamino]-benzenesulfonamide] | 251 | 2510 | 1580 | 2000 | 158 | 126 | 15.8 | 794 | –
CNc1nc(C)c(-c2ccnc(Nc3ccc(S(C)(=O)=O)cc3)n2)s1 [Compound 20, (4-Methanesulfonyl-phenyl)-[4-(4-methyl-2-methylamino-thiazol-5-yl)-pyrimidin-2-yl]-amine] | 2510 | 316 | 15.8 | 158 | 316 | 3980 | 63.1 | 2.51 | –
CNc1nc(C)c(-c2ccnc(Nc3cccc(S(=O)(=O)NC)c3)n2)s1 [Compound 21, N-Methyl-3-[4-(4-methyl-2-methylamino-thiazol-5-yl)-pyrimidin-2-ylamino]-benzenesulfonamide] | 39.8 | 251 | 794 | 1000 | 158 | 251 | 12.6 | 63.1 | 79.4
CNS(=O)(=O)c1cccc(Nc2nccc(-c3sc(N)nc3C)n2)c1 [Compound 26, 3-[4-(2-Amino-4-methyl-thiazol-5-yl)-pyrimidin-2-ylamino]-N-methyl-benzenesulfonamide] | 2510 | 316 | 1000 | 1260 | 1000 | 794 | 126 | 251 | 79.4
CCNS(=O)(=O)c1cccc(Nc2nccc(-c3sc(N)nc3C)n2)c1 [Compound 30, 3-[4-(2-Amino-4-methyl-thiazol-5-yl)-pyrimidin-2-ylamino]-N-ethyl-benzenesulfonamide] | 794 | 316 | 1000 | 2000 | 200 | 398 | 20 | 100 | 15.8
CCNc1nc(C)c(-c2ccnc(Nc3ccc(S(N)(=O)=O)cc3)n2)s1 [Compound 35, 4-[4-(2-Ethylamino-4-methyl-thiazol-5-yl)-pyrimidin-2-ylamino]-benzenesulfonamide] | 20 | 631 | 6.31 | 31.6 | 63.1 | 79.4 | 10 | 3.98 | 63.1
CCNc1nc(C)c(-c2ccnc(Nc3cccc(S(=O)(=O)NCCOC)c3)n2)s1 [Compound 53, 3-[4-(2-Ethylamino-4-methyl-thiazol-5-yl)-pyrimidin-2-ylamino]-N-(2-methoxy-ethyl)-benzenesulfonamide] | 158 | 501 | 2000 | 2000 | 200 | 158 | 100 | 398 | 158
Cc1nc(N)sc1-c1ccnc(Nc2ccc(S(=O)(=O)NCCO)cc2)n1 [Compound 68, 4-[4-(2-Amino-4-methyl-thiazol-5-yl)-pyrimidin-2-ylamino]-N-(2-hydroxy-ethyl)-benzenesulfonamide] | 1580 | 1260 | 20 | 20 | 200 | 2000 | 200 | 10 | 63.1
